Data: patent publication US6395906B1, “Intermediates to pesticidal 1-arylpyrazoles” (Rhone-Poulenc Inc., priority 1995, dated 2002)

Columns and labels:
Type in all cases: in vivo
[1] = tested on: southern corn rootworm (Diabrotica undecimpunctata howardi); test: Southern corn rootworm (SCRW) soil test; details: soil concentration 2.5, 5, 6.75 or 10 ppm; mortality eight days after infestation
Description: (§1) For the tick, aphids, souther armyworm, tobacco budworm, house fly, Mexican bean beetle, American cockroach, cat flea, souther corn rootworm, western corn rootworm, black cutworm, and southern root-knot nematode, a solution or suspension was prepared by adding the test compound to a solution of dimethylformamide, acetone, emulsifiers which are alkylaryl polyether alcohols organic sulfonates, and water. The result was a 100 or 500 ppm concentration of the test compound.
(§2) For southern corn rootworm and black cutworm tests, the water-acetone-DMF-emulsifier solution was adjusted for a treatment rate of 2.5, 5, 6.75 or 10 ppm.
(§3) Southern corn rootworm (SCRW), Black cutworm (BCW): Corn seeds were placed in a glass jar and covered with dry sandy loam soil. The 500 ppm test formulation was applied for a soil concentration of 2.5, 5, 6.75 or 10 ppm. As an untreated control, an aliquot of a water-acetone-DMF-emulsifier solution containing no test compound was applied in a similar manner. After incubating covered for 24 hours, the soil was mixed and inoculated with approximately 25 southern corn rootworm eggs. Following an additional 48 hours, two late second to early third instar black cutworms were placed in the jar with a portion of insect diet. Eight days after infestation, mortality was assessed visually for cutworm and by Berlese funnel extraction for rootworm.

[2] = tested on: house fly (Musca domestica); test: House fly (HF) bait test; details: sucrose bait, 100 or 250 ppm; adult flies, mortality after 24 hours
Description: as §1
For house fly tests, the water-acetone-DMF-emulsifier solution was adjusted with a 20% by weight aqueous solution of sucrose to provide a final 100 or 250 ppm concentration of the test compound.
House fly (HF): Four to six day old adult house flies were used. The files were immobilized by anesthetizing with carbon dioxide. A bait cup was prepared which contained the 100 or 250 ppm test compound formulation/sucrose solution and one or two absorbent cotton pad(s). As an untreated control, a water-acetone-DMF-emulsifier-sucrose solution containing no test compound was applied in a similar manner. The bait cup was introduced inside the cage prior to admitting 12-25 anesthetized flies. Mortality was assessed after 24 hours.

[3] = tested on: black cutworm (Agrotis ipsilon); test: Black cutworm (BCW) soil test; details: soil concentration 2.5, 5, 6.75 or 10 ppm; mortality eight days after infestation
Description: as §1, §2, §3

[4] = tested on: tobacco budworm (Heliothis virescens); test: Tobacco budworm (TBW) treated cotton leaf test; details: cotton leaves, 100 ppm; second instar larvae, five days
Description: as §1
Tobacco budworm (TBW): Cotton leaves were wet to runoff with the 100 ppm test compound formulation. As an untreated control, a water-acetone-DMF-emulsifier solution containing no test compound was also applied wet to runoff to cotton leaves. Ten randomly selected second instar tobacco budworm larvae were introduced into plastic containers in which moist dental wicks and the dry treated leaves had been placed. The cups were closed and held for five days. Larvae which were unable to move the length of the body, even upon stimulation by prodding, were considered dead.

[5] = tested on: cotton aphid (Aphis gossypii); test: Cotton aphid (CA) foliar spray test; details: cotton plants wet to runoff, 100 or 500 ppm; dead aphids counted after three days
Description: as §1
Buckthorn aphid (BA) or cotton aphid (CA): Adult and nymphal stages of buckthorn or cotton aphid were reared on potted dwarf nasturtium or cotton plants, respectively. Plants infested with 100-150 aphids were wet to runoff with the 100 or 500 ppm test compound formulation. As an untreated control, a water-acetone-DMF-emulsifier solution containing no test compound was also applied to runoff to infested plants. The treated plants were stored for one day for buckthorn aphid and three days for cotton aphid, after which the dead aphids were counted.

[6] = tested on: cotton aphid (Aphis gossypii); test: Cotton aphid systemic test (CA-Sys); details: soil drench 10.0 ppm, aphid control rated three and six days after infestation
Text: (§4) For cotton aphid systemic tests and black cutwork—systemic tests, the water-acetone-DMF-emulsifier solution was adjusted for a treatment rate of 10.0 ppm soil concentration.
Cotton aphid—systemic test (CA-Sys): Cotton seeds were placed on top of the soil surface in pots containing moist soil. The test compound solution was applied as a drench to the top of the soil and seeds for a treatment rate equivalent to 10.0 ppm soil concentration. As an untreated control, an aliquot of a water-acetone-DMF-emulsifier solution containing no test compound was applied in a similar manner. The soil surface and seeds were covered with moist soil. The pots were held in the greenhouse for the duration of the bioassay. When the cotyledons of the cotton were expanded (approximately 7 days after planting), the cotton was infested with approximately 25 cotton aphids (mixed population). The plant were rated for aphid control three and six days after infestation.

[7] = tested on: western corn rootworm (Diabrotica virgifera virgifera); test: Western corn rootworm (WCRW) soil test; details: soil concentration 0.15 or 0.5 ppm; neonate larvae, mortality six days after infestation
Description: as §1
For the western corn rootworm test, the water-acetone-DMF-emulsifier solution was adjusted for a treatment rate of 0.15 or 0.5 ppm.
Western corn rootworm (WCRW): The 500 ppm test formulation was applied to dry sandy loam soil contained in a glass jar for a soil concentration of 0.15 or 0.5 ppm. As an untreated control, an aliquot of a water-acetone-DMF-emulsifier solution containing no test compound was applied in a similar manner. After incubating covered for 24 hours, the soil was mixed and four germinated corn seedlings were added to the jar. Ten neonate western corn rootworm larvae were placed in the jar. Six days after infestation, mortality was assessed by Berlese funnel extraction.

[8] = tested on: greenbug aphid (Schizaphis graminum); test: Greenbug aphid systemic test (GA-Sys); details: soil drench 10 or 25 ppm, sorghum; aphid control rated one and three days after infestation
Text: For the greenbug aphid systemic test, the water-acetone-DMF-emulsifier solution was adjusted for a treatment rate of 10 or 25 ppm soil concentration.
Greenburg aphid—systemic test (GA-Sys): Sorghum seeds were placed on top of the soil surface in pots containing moist soil. The test compound solution was applied as a drench to the top of the soil and seeds for a treatment rate equivalent to 10 or 25 ppm soil concentration. As an untreated control, an aliquot of a water-acetone-DMF-emulsifier solution containing no test compound was applied in a similar manner. The soil surface and seeds were covered with moist soil. The pots were held in the greenhouse for the duration of the bioassay. When the sorghum seeds germinated, greenbug aphids were sprinkled evenly over the sorghum pots to about 50 aphids per pot. The plants were rated for aphid control one and three days after infestation.

[9] = tested on: Mexican bean beetle (Epilachna varivestis); test: Mexican bean beetle (MBB) treated bean leaf test; details: bean leaves, 100 or 500 ppm; second instar larvae, five days
Description: as §1
Southern armyworm (SAW), Mexican bean beetle (MBB): Bean leaves were wet to runoff with the 100 or 500 ppm test compound formulation. As an untreated control, a water-acetone-DMF-emulsifier solution containing no test compound was also applied wet to runoff to bean leaves. Five or six randomly selected second instar southern armyworn larvae or Mexican bean bettle larvae were introduced into each plastic container with the dry treated leaves. The container was closed and held for five days. Larvae which were unable to move the length of the body, even upon stimulation by prodding, were considered dead.

[10] = tested on: black cutworm (Agrotis ipsilon); test: Black cutworm systemic test (BCW-Sys); details: soil drench 10.0 ppm, corn seedling clipped ten days after treatment; mortality 4 days after infestation
Text: as §4
Black cutworm—systemic test (BCW-Sys): Corn seeds were placed on top of the soil surface in pots containing moist soil. The test compound solution was applied as a drench to the top of the soil and seeds for a treatment rate equivalent to 10.0 ppm soil concentration. As an untreated control, an aliquot of water-acetone-DMF-emulsifier solution containing no test compound was applied in a similar manner. The soil surface and seeds were covered with moist soil. The pots were held in the greenhouse for the duration of the bioassay. Ten days after treatment, the corn seedling was clipped and placed in a plastic cup with 2 late second to early third instar black cutworm larvae. Mortality was assessed visually 4 days after infestation.

[11] = tested on: cat flea (Ctenocephalides felis); test: Cat flea (CF) treated filter paper contact test; details: 500 ppm, adult fleas, contact mortality 1 day after infestation
Description: as §1
Cat flea (CF), dog tick (DT): Filter papers were treated with an aliquot of the 500 ppm test formulation. As an untreated control, an aliquot of a water-acetone-DMF-emulsifier solution containing no test compound was applied in a similar manner. When dry, 2 treated filters were placed in a vial for the flea and another 2 filters in a vial for the tick. Five adult fleas were added to one vial and 5 adult ticks to the second vial. Contact mortality was assessed 1 day after infestation for the flea and 14 days after infestation for the tick.

[12] = tested on: American cockroach (Periplaneta americana); test: American cockroach (ACR) treated food pellet test; details: food pellets with 500 ppm formulation; nymphs, contact and feeding mortality 1 and 5 days after infestation
Description: as §1
American cockroach (ACR): Cat food or dog food pellets were added to jars containing 1-2 mls of the 500 ppm test formulation. As an untreated control, an aliquot of a water-acetone-DMF-emulsifier solution containing no test compound was applied in a similar manner. After 48 hours, roach nymphs were added to the jar. Contact and feeding mortally was assessed 1 and 5 days after infestation.

N#Cc1nn(-c2c(Cl)cc(C(F)(F)F)cc2Cl)c(C=NN)c1SC(F)(F)F [Compound 3, 5-{(N-amino)iminomethylidenyl}-3-cyano-1-(2,6-dichloro-4-trifluoromethylphenyl)-4-trifluoromethylthiopyrazole]
SCRW [1]: + (active against 1 or more insects described above up to 100% mortality. This activity is indicated by a “+”) | HF [2]: + (active against 1 or more insects described above up to 100% mortality. This activity is indicated by a “+”) | BCW [3]: + (active against 1 or more insects described above up to 100% mortality. This activity is indicated by a “+”) | TBW [4]: + (active against 1 or more insects described above up to 100% mortality. This activity is indicated by a “+”)

CON=Cc1c(SC(F)(F)F)c(C#N)nn1-c1c(Cl)cc(C(F)(F)F)cc1Cl [Compound 5, 3-Cyano-1-(2,6-dichloro-4-trifluoromethylphenyl)-5-{(N-methoxy)iminomethylidenyl}-4-trifluoromethylthiopyrazole]
SCRW [1]: + (active against 1 or more insects described above up to 100% mortality. This activity is indicated by a “+”) | CA [5]: + (active against 1 or more insects described above up to 100% mortality. This activity is indicated by a “+”) | CA-Sys [6]: + (active against 1 or more insects described above up to 100% mortality. This activity is indicated by a “+”) | WCRW [7]: + (active against 1 or more insects described above up to 100% mortality. This activity is indicated by a “+”) | HF [2]: + (active against 1 or more insects described above up to 100% mortality. This activity is indicated by a “+”)

CC(=O)c1c([S+]([O-])C(F)(F)F)c(C#N)nn1-c1c(Cl)cc(C(F)(F)F)cc1Cl (stereo not shown) [Compound 10, 5-Acetyl-3-cyano-1-(2,6-dichloro-4-trifluoromethylphenyl)-4-trifluoromethylsulfinylpyrazole]
WCRW [7]: + (active against 1 or more insects described above up to 100% mortality. This activity is indicated by a “+”) | GA-Sys [8]: + (active against 1 or more insects described above up to 100% mortality. This activity is indicated by a “+”) | BCW [3]: + (active against 1 or more insects described above up to 100% mortality. This activity is indicated by a “+”) | TBW [4]: + (active against 1 or more insects described above up to 100% mortality. This activity is indicated by a “+”) | MBB [9]: + (active against 1 or more insects described above up to 100% mortality. This activity is indicated by a “+”) | BCW-Sys [10]: + (active against 1 or more insects described above up to 100% mortality. This activity is indicated by a “+”)

CCOC(OCC)c1c(S(=O)(=O)C(F)(F)F)c(C#N)nn1-c1c(Cl)cc(C(F)(F)F)cc1Cl [Compound 19, 3-Cyano-1-(2,6-dichloro-4-trifluoromethylphenyl)-5-diethoxymethyl-4-trifluoromethylsulfonylpyrazole]
CF [11]: + (active against 1 or more insects described above up to 100% mortality. This activity is indicated by a “+”) | TBW [4]: + (active against 1 or more insects described above up to 100% mortality. This activity is indicated by a “+”) | ACR [12]: + (active against 1 or more insects described above up to 100% mortality. This activity is indicated by a “+”)

CCOC(OCC)c1c([S+]([O-])C(F)(F)F)c(C#N)nn1-c1c(Cl)cc(C(F)(F)F)cc1Cl (stereo not shown) [Compound 20, 3-Cyano-1-(2,6-dichloro-4-trifluoromethylphenyl)-5-diethoxymethyl-4-trifluoromethylsulfinylpyrazole]
CA [5]: + (active against 1 or more insects described above up to 100% mortality. This activity is indicated by a “+”) | CA-Sys [6]: + (active against 1 or more insects described above up to 100% mortality. This activity is indicated by a “+”) | CF [11]: + (active against 1 or more insects described above up to 100% mortality. This activity is indicated by a “+”) | ACR [12]: + (active against 1 or more insects described above up to 100% mortality. This activity is indicated by a “+”)
